Assays:
HIF-1 = experiment: Western blot for HIF-1 in colonic crypts after DMOG injection; assay type: in vivo, male C57Bl/6 mice; settings: 8 mg DMOG intraperitoneally; 4-12 after DMOG administration
Protocol: (§1) FIG. 1 depicts a Western blot for HIF-1, HIF-2, and β-actin in colonic crypts at the time points indicated after DMOG injection (8 mg.) Each lane represents a different animal.
(§2) In order to assess the kinetic effects of DMOG on the HIF-1 and HIF-2 protein levels, male C57Bl/6 mice were injected with 8 mg. of DMOG intraperitoneally and colonic crypts were harvested at various time points after injection (FIG. 1). A 8 mg dose results in the elevation of HIF1 and HIF2 proteins 4-12 after DMOG administration as determined by Western blot analysis.

HIF-2 = experiment: Western blot for HIF-2 in colonic crypts after DMOG injection; assay type: in vivo, male C57Bl/6 mice; settings: 8 mg DMOG intraperitoneally; 4-12 after DMOG administration
Protocol: as §1, §2

[1] = Mortality, GI toxicity and gross intestinal morphology after DMOG injection; assay type: in vivo, male C57Bl/6 mice; settings: 8 mg DMOG intraperitoneally, mice
intestinal stem cells = experiment: Microcolony analysis of colon crypt regeneration after 20 Gy abdominal irradiation; assay type: in vivo, mice
Protocol: FIG. 2 is a graphical depiction of the crypts identified in transverse sections of colon stained with hematoxylin-eosin (H & E) after they were treated with saline or DMOG 16 hours before radiation, 4 hours before radiation, and then every 24 hours after receiving 20 Gy of abdominal radiation. The data represents the combined results from 8 mice receiving either DMOG or saline. Sixteen sections were analyzed per mouse. *p<0.006.
FIG. 3 is a graphical depiction of the crypts identified in transverse sections of colon stained with H & E in mice irradiated before administration of DMOG. Mice were treated with saline or DMOG 2 hours after receiving 20 Gy of abdominal radiation and then once every 24 hours thereafter for 4.5 days. x-axis, left bar mice treated with saline, right bar mice treated with DMOG; y-axis regenerated crypts. *p<0.005.
Radio- and chemotoxicity to the GI tract is the result of damage to the intestinal stem cell located within the crypts of Lieberkühn. The intestinal stem cell, defined by its expression of LGR5 is the most rapidly dividing cell in the GI tract and is therefore susceptible to genotoxic damage. […]

GI epithelia = experiment: FITC-dextran assay of the GI tract (epithelial integrity) after irradiation; assay type: in vivo, mice; settings: 20 Gy; gavage 0.6 mg/kg FITC-dextran (4 kD); measured four hours later (FIG. 4)
Protocol: FIG. 4 depicts the concentration of FITC-Dextran present in the serum of mice gavaged with 0.6 mg./kg. FITC-Dextran (4 kD) either with or without irradiation and with or without DMOG. Six mice were tested per experimental condition. *p<0.04
Mortality from GI radiotoxicity results from compromised epithelial integrity manifesting as uncontrolled diarrhea or infections from enteric pathogens due to decreased barrier function. To test whether a PHD inhibitor would increase epithelial integrity after radiation insult, a FITC-dextran assay of the GI tract was performed. FITC-dextran cannot cross the GI epithelia, thus its presence in serum is an indication of compromised epithelial integrity. Following irradiation (20 Gy), mice underwent gavage, with the insertion of 0.6 mg/kg of FITC-dextran (4 kD). Four hours later, levels of FITC-dextran were measured in the blood. Treatment with DMOG results in a 3.5-fold decrease in the presence of FITC-dextran in the serum relative to saline control (FIG. 4).

[2] = test system: mice receiving 20 Gy of abdominal radiation; experiment: Survival following whole-abdominal irradiation (Kaplan-Meier); assay type: in vivo; settings: 20 Gy abdominal radiation, DMOG treatment vs none (FIG. 5)
Excerpt: FIG. 5 depicts Kaplan-Meier survival analysis of mice following whole-abdominal irradiation (20 Gy) with and without DMOG treatment. p=0.03 (n=12).

COC(=O)CNC(=O)C(=O)OC [DMOG, N-(methoxyoxoacetyl)-glycine methyl ester]
HIF1 protein level in colonic crypts (Western blot) (HIF-1): elevation | HIF2 protein level in colonic crypts (Western blot) (HIF-2): elevation | gross morphological changes in the intestine [1]: nor was there obvious gross morphological changes in the intestine | mortality or GI toxicity [1]: no observed increase in mortality or GI toxicity | enrichment in regenerative capacity of colon relative to saline alone (regenerated crypts) (intestinal stem cells; 8 mg DMOG prior to 20 Gy whole-abdomen irradiation, then daily, sacrifice 4.5 days post irradiation (FIG. 2)): 2 fold | enrichment in regenerative capacity of colon relative to saline alone (regenerated crypts) (intestinal stem cells; DMOG administered after 20 Gy whole-abdomen irradiation (2 hours after, then every 24 hours), 4.5 days (FIG. 3)): 2 fold | decrease in FITC-dextran in the serum relative to saline control (GI epithelia): 3.5 fold | overall survival [2]: dramatically improved
